Consider 16 compounds from EP0547708A1, “Saccharin derivative proteolytic enzyme inhibitors” (STERLING WINTHROP INC., priority 1991, dated 1993).

The test addresses T1, human leukocyte elastase (Homo sapiens, UniProt P08246).
T1 sequence (P08246 30-267): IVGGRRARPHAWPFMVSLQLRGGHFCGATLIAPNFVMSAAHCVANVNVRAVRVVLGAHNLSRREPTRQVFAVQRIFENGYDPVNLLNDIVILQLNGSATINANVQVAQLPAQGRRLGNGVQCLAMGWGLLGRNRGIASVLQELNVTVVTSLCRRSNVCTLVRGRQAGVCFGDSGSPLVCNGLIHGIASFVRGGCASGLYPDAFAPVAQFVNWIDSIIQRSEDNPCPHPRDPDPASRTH
The test can be described thus: Inhibition of human leukocyte elastase in vitro (Ki* = koff/kon). The class given is biochemical. The note with it: Ki* = koff/kon (rate of reactivation of the enzyme divided by rate of inactivation); koff and kon measured, Ki* then calculated.
Method: Ki*, which is defined as the rate of reactivation of the enzyme divided by the rate of inactivation of the enzyme (koff/kon), was therefore determined instead. The values of koff and kon were measured and Ki* was then calculated.
The value of kon was determined by measuring the enzyme activity of an aliquot of the enzyme as a function of the time after addition of the test compound (inhibitor). […] The value of kon was then obtained by the equation kon = kobs /[I] [formula] wherein [I] is the concentration of the inhibitor. The value of koff was similarly determined, and Ki* was then obtained by the equation Ki * = koff /kon [formula] .
For the compound `CC(C)c1cccc2c1C(=O)N(COC1=CC(=O)OC1)S2(=O)=O` [Example 1A, 2-[(2,5-dihydro-5-oxo-3-furanyl)oxymethyl]-4-isopropylsaccharin], the Ki was 400 pM. The same measure for `CC(C)c1cccc2c1C(=O)N(COc1cc(=O)oc3ccccc13)S2(=O)=O` [Example 1B]: 220 pM. As to `CC(C)c1cccc2c1C(=O)N(COc1cc(=O)n(C)c3ccccc13)S2(=O)=O` [Example 1C], the Ki was 700 pM. In the case of `Cc1cc(OCN2C(=O)c3c(C(C)C)cccc3S2(=O)=O)cc(=O)o1` [Example 1D], the Ki was 250 pM. To `Cc1cc(OCN2C(=O)c3c(C(C)C)cccc3S2(=O)=O)c(C(=O)c2ccccc2)c(=O)o1` [Example 1E] belongs 35 pM; to `CC(C)c1cccc2c1C(=O)N(COc1cc(-c3ccccc3)oc(=O)c1)S2(=O)=O` [Example 1F], 220 pM. `COc1cc(C(C)C)c2c(c1)S(=O)(=O)N(COC1=C(Cc3ccccc3)C(=O)OC1(C)C)C2=O` [Example 1O]: the Ki is 16 pM. The same measure for `COc1cc(C(C)C)c2c(c1)S(=O)(=O)N(COC1=C(CN3CCOCC3)C(=O)OC1)C2=O` [Example 1P]: 41 pM. The same measure for `COc1cc(C(C)C)c2c(c1)S(=O)(=O)N(COc1c(C(C)=O)c(=O)n(-c3ccccc3)c3ccccc13)C2=O` [Example 3A, 2-(1-phenyl-3-acetylcarbostyryl-4-yl)oxymethyl-4-isopropyl-6-methoxysaccharin]: 430 pM; for `COc1cc(C(C)C)c2c(c1)S(=O)(=O)N(COc1c(C(C)=O)c(=O)n(C)c3ccccc13)C2=O` [Example 3B, 2-(1-methyl-3-acetylcarbostyryl-4-yl)oxymethyl-4-isopropyl-6-methoxysaccharin]: 270 pM; for `COc1cc(C(C)C)c2c(c1)S(=O)(=O)N(COC1=CC(=O)OC1(C)C)C2=O` [Example 4E]: 93 pM. The same measure for `COc1cc(C(C)C)c2c(c1)S(=O)(=O)N(COC1=C(Oc3ccccc3)C(=O)N(c3ccccc3)C1)C2=O` [Example 4F]: 60 pM. On to `COc1cc(C(C)C)c2c(c1)S(=O)(=O)N(COC1=C(N3CCCCC3)C(=O)N(c3ccccc3)C1)C2=O` [Example 4G], for which the Ki was 200 pM. The same measure for `COc1cc(C(C)C)c2c(c1)S(=O)(=O)N(COc1nc3ccccn3c(=O)c1CN1CCOCC1)C2=O` [Example 5, 2-[3-(4-morpholinylmethyl)-4-oxo-4H-pyrido[1,2-a]pyrimidin-2-yl]oxymethyl-4-isopropyl-6-methoxysaccharin]: 230 pM; for `COc1cc(C(C)C)c2c(c1)S(=O)(=O)N(COC1=C(C)C(=O)C(C)=C(C)C1=O)C2=O` [Example 6, 2-(3,5,6-trimethyl-1,4-dioxo-2,5-cyclohexadien-2-yl)oxymethyl-4-isopropyl-6-methoxysaccharin]: 920 pM. On to `COc1cc(C(C)C)c2c(c1)S(=O)(=O)N(COC1=C(C(C)=O)C(=O)c3ccoc3C1=O)C2=O` [Example 7, 2-(5-acctyl-4,7-dihydro-4,7-dioxobenzofuran-6-yl)oxymethyl-4-isopropyl-6-methoxysaccharin], for which the Ki is 17000 pM.
